PMC7252619 (PLoS ONE, 2020)
“And” between values parts separate entries of the source, which are not always exact repeats. Equal entries are not always repeated. Where two headings read alike, the source gives them in different places. Blank lines part the entries; values can stand above or below the compound they belong to.

Key:
Test in all cases: Kinase activity test (ReactionBiology), % enzyme activity relative to DMSO
Type in all cases: biochemical
[1] = molecular target: T1, CK1d (Homo sapiens, UniProt P48730); details: CK1d
T1 construct: purchased ReactionBiology
T1 sequence (P48730 whole entry): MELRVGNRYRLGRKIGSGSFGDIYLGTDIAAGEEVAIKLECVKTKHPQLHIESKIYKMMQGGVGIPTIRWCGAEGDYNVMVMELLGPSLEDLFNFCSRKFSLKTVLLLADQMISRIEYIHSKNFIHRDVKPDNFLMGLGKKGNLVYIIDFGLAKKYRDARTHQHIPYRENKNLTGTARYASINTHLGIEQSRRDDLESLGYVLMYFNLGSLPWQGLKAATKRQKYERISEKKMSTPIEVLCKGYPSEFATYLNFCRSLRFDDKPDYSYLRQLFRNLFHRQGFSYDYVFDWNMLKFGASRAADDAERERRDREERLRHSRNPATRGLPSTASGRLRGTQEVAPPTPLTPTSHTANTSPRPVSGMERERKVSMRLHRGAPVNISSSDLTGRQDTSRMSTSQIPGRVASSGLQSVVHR

[2] = molecular target: T2, DAPK1 (Homo sapiens, UniProt P53355); details: for remaining activity at 1 µM / remaining activity at 10 µM: DAPK1
T2 construct: purchased ReactionBiology
T2 sequence (P53355 whole entry): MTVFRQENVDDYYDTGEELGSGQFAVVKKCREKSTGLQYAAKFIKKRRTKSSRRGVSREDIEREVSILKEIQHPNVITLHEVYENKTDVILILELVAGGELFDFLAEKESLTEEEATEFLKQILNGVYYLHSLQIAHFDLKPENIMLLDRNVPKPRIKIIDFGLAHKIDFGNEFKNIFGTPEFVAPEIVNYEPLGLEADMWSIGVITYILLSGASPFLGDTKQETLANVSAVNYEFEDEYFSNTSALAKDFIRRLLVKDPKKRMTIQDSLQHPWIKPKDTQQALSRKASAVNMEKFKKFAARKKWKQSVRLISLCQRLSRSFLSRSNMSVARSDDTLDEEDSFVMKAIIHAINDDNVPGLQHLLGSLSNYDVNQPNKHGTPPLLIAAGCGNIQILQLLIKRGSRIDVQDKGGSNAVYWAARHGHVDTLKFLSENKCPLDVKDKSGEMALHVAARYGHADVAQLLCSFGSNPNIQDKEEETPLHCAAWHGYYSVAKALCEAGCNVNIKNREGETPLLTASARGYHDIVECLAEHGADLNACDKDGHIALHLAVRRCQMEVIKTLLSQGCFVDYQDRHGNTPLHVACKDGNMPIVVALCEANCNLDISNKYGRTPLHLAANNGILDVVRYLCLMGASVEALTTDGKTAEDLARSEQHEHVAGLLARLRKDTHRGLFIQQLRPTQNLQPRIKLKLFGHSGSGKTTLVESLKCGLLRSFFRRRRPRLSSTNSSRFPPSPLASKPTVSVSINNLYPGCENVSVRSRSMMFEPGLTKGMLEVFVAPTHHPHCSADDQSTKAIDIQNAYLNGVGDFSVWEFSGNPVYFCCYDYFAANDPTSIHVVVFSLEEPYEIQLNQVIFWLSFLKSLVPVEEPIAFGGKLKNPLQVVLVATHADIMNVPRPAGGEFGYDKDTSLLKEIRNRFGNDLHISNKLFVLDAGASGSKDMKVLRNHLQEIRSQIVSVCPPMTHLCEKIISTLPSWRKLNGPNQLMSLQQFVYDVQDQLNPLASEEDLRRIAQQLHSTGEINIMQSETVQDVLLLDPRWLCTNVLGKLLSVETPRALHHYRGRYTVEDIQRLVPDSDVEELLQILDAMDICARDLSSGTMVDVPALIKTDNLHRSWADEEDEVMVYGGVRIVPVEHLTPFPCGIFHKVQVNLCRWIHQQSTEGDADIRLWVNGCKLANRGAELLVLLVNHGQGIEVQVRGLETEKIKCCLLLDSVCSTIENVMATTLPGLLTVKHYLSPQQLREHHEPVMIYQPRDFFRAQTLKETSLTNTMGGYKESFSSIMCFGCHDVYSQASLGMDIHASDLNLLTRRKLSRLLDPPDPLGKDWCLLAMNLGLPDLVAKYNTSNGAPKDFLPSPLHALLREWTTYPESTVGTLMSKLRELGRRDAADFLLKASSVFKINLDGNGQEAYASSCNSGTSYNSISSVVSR

[3] = molecular target: T3, EPHB4 (Homo sapiens, UniProt P54760);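 note: EPHB4 was one of ten selected kinases in the screening panel, with enzyme activity expressed as a percentage of DMSO controls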
T3 construct: purchased ReactionBiology
T3 sequence (P54760 16-987): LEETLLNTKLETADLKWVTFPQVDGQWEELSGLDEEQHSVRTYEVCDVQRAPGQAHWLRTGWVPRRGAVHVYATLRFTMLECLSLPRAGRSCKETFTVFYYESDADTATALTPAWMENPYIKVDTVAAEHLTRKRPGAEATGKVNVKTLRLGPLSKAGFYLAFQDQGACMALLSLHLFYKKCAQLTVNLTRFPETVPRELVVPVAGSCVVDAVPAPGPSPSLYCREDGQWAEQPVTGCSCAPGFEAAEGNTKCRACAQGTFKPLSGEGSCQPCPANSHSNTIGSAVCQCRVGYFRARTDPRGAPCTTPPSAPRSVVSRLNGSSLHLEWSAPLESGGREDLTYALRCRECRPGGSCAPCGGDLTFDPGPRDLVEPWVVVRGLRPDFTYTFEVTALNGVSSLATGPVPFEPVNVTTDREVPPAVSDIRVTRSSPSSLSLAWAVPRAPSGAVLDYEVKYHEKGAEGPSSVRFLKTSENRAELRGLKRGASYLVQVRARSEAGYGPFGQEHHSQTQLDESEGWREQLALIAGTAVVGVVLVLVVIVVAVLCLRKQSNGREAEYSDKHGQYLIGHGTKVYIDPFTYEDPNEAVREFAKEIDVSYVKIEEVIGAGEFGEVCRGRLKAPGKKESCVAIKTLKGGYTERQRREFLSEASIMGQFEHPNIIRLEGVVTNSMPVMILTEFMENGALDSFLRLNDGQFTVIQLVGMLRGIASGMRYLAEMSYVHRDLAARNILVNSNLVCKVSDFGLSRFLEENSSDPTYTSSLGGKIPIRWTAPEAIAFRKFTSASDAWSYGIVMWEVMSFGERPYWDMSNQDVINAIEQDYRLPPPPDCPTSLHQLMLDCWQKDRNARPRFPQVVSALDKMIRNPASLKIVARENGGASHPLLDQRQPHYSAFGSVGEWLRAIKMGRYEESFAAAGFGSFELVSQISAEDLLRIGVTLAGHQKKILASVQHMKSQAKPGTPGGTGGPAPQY

[4] = molecular target: VEGFR2 (Homo sapiens, UniProt P35968); set-up: purchased ReactionBiology; details: VEGFR2, Average;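 note: VEGFR2 was one member of a ten-kinase screening panel testing marketed FDA-approved drugs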
Sequence of VEGFR2 (P35968 20-1356): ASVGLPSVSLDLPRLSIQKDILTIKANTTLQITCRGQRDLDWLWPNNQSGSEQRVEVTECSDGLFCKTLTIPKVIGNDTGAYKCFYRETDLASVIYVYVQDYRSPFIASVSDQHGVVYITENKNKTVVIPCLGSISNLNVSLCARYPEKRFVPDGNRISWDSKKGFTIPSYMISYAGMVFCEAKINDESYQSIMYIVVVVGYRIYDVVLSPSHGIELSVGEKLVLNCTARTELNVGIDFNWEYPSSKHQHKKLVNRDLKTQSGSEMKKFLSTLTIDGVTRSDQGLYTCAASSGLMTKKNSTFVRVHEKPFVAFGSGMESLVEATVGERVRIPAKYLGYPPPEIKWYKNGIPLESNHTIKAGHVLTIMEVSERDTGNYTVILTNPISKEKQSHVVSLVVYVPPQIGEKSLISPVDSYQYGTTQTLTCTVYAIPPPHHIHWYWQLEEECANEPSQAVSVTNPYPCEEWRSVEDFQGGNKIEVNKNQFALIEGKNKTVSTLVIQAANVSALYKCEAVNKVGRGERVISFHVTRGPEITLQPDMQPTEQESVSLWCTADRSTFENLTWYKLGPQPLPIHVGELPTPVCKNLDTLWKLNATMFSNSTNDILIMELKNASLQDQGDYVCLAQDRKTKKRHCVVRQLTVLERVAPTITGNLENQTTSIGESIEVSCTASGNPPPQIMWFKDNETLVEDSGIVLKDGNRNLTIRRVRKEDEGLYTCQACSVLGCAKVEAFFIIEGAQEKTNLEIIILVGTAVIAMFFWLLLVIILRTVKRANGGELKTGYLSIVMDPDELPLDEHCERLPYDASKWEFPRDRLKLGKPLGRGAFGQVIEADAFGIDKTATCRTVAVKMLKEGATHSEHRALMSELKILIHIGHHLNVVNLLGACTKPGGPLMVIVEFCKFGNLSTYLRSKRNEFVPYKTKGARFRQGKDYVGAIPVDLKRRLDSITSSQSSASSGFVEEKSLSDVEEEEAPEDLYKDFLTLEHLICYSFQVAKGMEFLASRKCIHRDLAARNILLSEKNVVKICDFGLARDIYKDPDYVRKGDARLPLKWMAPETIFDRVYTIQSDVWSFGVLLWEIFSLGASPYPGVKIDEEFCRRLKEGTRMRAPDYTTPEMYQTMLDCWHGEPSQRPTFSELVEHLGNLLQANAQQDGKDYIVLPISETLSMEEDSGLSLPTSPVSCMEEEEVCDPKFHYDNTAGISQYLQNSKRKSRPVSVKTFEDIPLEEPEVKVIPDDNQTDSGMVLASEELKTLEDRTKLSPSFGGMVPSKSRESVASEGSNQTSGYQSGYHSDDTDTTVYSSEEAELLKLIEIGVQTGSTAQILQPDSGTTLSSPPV

[5] = Average, read-out: % Enzyme Activity (relative to DMSO controls), Average
[6] = replicate Data 1, read-out: % Enzyme Activity (relative to DMSO controls), Data 1
[7] = replicate Data 2, read-out: % Enzyme Activity (relative to DMSO controls), Data 2

SMILES: NCCCCCC(=O)O [Aminocaproic acid]
remaining activity at 1 µM ([1]; 1 uM, Average, read-out: % Enzyme Activity (relative to DMSO controls), Average): 118%
remaining activity at 1 µM ([1]; 1 uM, replicate Data 1, read-out: % Enzyme Activity (relative to DMSO controls), Data 1): 116%
remaining activity at 1 µM ([1]; 1 uM, replicate Data 2, read-out: % Enzyme Activity (relative to DMSO controls), Data 2): 120%
remaining activity at 10 µM ([1]; 10 uM, Average, read-out: % Enzyme Activity (relative to DMSO controls), Average): 125%
remaining activity at 10 µM ([1]; 10 uM, replicate Data 1, read-out: % Enzyme Activity (relative to DMSO controls), Data 1): 122%
remaining activity at 10 µM ([1]; 10 uM, replicate Data 2, read-out: % Enzyme Activity (relative to DMSO controls), Data 2): 127%
remaining activity at 1 µM [2, 5]: 114%
remaining activity at 1 µM [2, 6]: 116%
remaining activity at 1 µM [2, 7]: 112%
remaining activity at 10 µM [2, 5]: 110%
remaining activity at 10 µM [2, 6]: 109%
remaining activity at 10 µM [2, 7]: 111%
remaining activity at 1 µM ([3]; EPHB4, 1 uM, Average, read-out: % Enzyme Activity (relative to DMSO controls), Average): 103%
remaining activity at 1 µM ([3]; EPHB4, 1 uM, replicate Data 1, read-out: % Enzyme Activity (relative to DMSO controls), Data 1): 103%
remaining activity at 1 µM ([3]; EPHB4, 1 uM, replicate Data 2, read-out: % Enzyme Activity (relative to DMSO controls), Data 2): 104%
remaining activity at 10 µM ([3]; EPHB4, 10 uM, Average, read-out: % Enzyme Activity (relative to DMSO controls), Average): 93.5%
remaining activity at 10 µM ([3]; EPHB4, 10 uM, replicate Data 1, read-out: % Enzyme Activity (relative to DMSO controls), Data 1): 92.2%
remaining activity at 10 µM ([3]; EPHB4, 10 uM, replicate Data 2, read-out: % Enzyme Activity (relative to DMSO controls), Data 2): 94.7%

SMILES: C[C@H]1O[C@@H](O[C@H]2[C@@H](O)C[C@H](O[C@H]3[C@@H](O)C[C@H](O[C@H]4CC[C@@]5(C)[C@H](CC[C@@H]6[C@@H]5C[C@@H](O)[C@]5(C)[C@@H](C7=CC(=O)OC7)CC[C@]65O)C4)O[C@@H]3C)O[C@@H]2C)C[C@H](O)[C@@H]1O [Digoxin]
% Enzyme Activity (relative to DMSO controls), Average ([1]; 1 uM, Average): 103.51%
% Enzyme Activity (relative to DMSO controls), Data 1 ([1]; 1 uM, replicate Data 1): 105.62%
% Enzyme Activity (relative to DMSO controls), Data 2 ([1]; 1 uM, replicate Data 2): 101.39%
% Enzyme Activity (relative to DMSO controls), Average ([1]; 10 uM, Average): 100.70%
% Enzyme Activity (relative to DMSO controls), Data 1 ([1]; 10 uM, replicate Data 1): 102.31%
% Enzyme Activity (relative to DMSO controls), Data 2 ([1]; 10 uM, replicate Data 2): 99.09%
% Enzyme Activity (relative to DMSO controls), Average ([3]; EPHB4, 1 uM, Average): 101.58%
% Enzyme Activity (relative to DMSO controls), Data 1 ([3]; EPHB4, 1 uM, replicate Data 1): 99.88%
% Enzyme Activity (relative to DMSO controls), Data 2 ([3]; EPHB4, 1 uM, replicate Data 2): 103.27%
% Enzyme Activity (relative to DMSO controls), Average ([3]; EPHB4, 10 uM, Average): 92.84%
% Enzyme Activity (relative to DMSO controls), Data 1 ([3]; EPHB4, 10 uM, replicate Data 1): 91.71%
% Enzyme Activity (relative to DMSO controls), Data 2 ([3]; EPHB4, 10 uM, replicate Data 2): 93.96%

SMILES: CN1CCC[C@H]1c1cccnc1 [Nicotine]
% Enzyme Activity (relative to DMSO controls), Average [2]: 100.32% and 100.82%
% Enzyme Activity (relative to DMSO controls), Data 1 [2]: 100.9% and 106.33%
% Enzyme Activity (relative to DMSO controls), Data 2 [2]: 99.74% and 95.31%
% Enzyme Activity (relative to DMSO controls), Average [3]: 98.32% and 87.80%
% Enzyme Activity (relative to DMSO controls), Data 1 [3]: 99.28% and 89.89%
% Enzyme Activity (relative to DMSO controls), Data 2 [3]: 97.35% and 85.7%

Now from value to compound:

% Enzyme Activity (relative to DMSO controls), Average ([4]; 1 uM): 113.33%
% Enzyme Activity (relative to DMSO controls), Average ([4]; 10 uM): 110.02%
% Enzyme Activity (relative to DMSO controls), Average ([1]; 1 uM, Average): 94.68%
% Enzyme Activity (relative to DMSO controls), Average ([3]; EPHB4, 1 uM, Average): 103.20%
% Enzyme Activity (relative to DMSO controls), Average ([3]; EPHB4, 10 uM, Average): 99.23%
SMILES: Cc1ccc(-c2cc(C(F)(F)F)nn2-c2ccc(S(N)(=O)=O)cc2)cc1 [Celecoxib]

% Enzyme Activity (relative to DMSO controls), Average ([4]; 1 uM): 108.60%
% Enzyme Activity (relative to DMSO controls), Average ([4]; 10 uM): 108.08%
% Enzyme Activity (relative to DMSO controls), Average ([1]; 10 uM, Average): 105.10%
% Enzyme Activity (relative to DMSO controls), Average ([3]; EPHB4, 1 uM, Average): 110.35%
% Enzyme Activity (relative to DMSO controls), Average ([3]; EPHB4, 10 uM, Average): 94.48%
SMILES: Fc1ccc([C@@H]2CCNC[C@H]2COc2ccc3c(c2)OCO3)cc1 [Paroxetine]
